Data reported in patent US20120190690A1, “E[…] THE TREATMENT OF WEIGHT DISORDERS” (MERZ PHARMA GmbH & CO. KGaA, priority 2009, published 2012).
“Also recorded” adds a separate entry of the source.

How the values were obtained:
[1] = Plasma levels in the rat weight study; type: in vivo; conditions: N=8
Method: (§1) Eltoprazine hydrochloride was dissolved in sterile water. Animals were treated for 2 weeks using Alzet osmotic pumps (2ML2) implanted under the skin on the back delivering constantly eltoprazine solution or using b.i.d. s.c. Treatment. During the treatment, the rats were kept in single cages.
(§2) Group 1: vehicle (osmotic pump; saline) Group 2: eltoprazine 8 mg/kg/day (osmotic pump; in distilled water) Group 3: vehicle (2 daily injections—9 am & 3 pm—s.c.; in distilled water) Group 4: eltoprazine 1 mg/kg (2 daily injections—9 am & 3 pm—s.c.; in distilled water)

5-HT1a receptor = conditions: Schipper et al. 1990; cited from earlier work
[2] = system: 6-OHDA-lesioned rat model of Parkinson's disease; assay: L-DOPA induced dyskinesia (AIM scores) in unilaterally 6-OHDA-lesioned rats; type: in vivo; conditions: eltoprazine hydrochloride 0.08, 0.3, 1.25 and 5 mg/kg s.c. 30 min before test; after 21 days L-DOPA 6 mg/kg + benserazide 15 mg/kg i.p.; FIG. 2
Method: (§3) Male Sprague Dawley rats (Elevage Janvier, Le Genest Saint Isle, France) weighing between 220 and 250 g at the beginning of the study are used in these experiments. They are housed under a 12 h light/dark cycle with free access to standard pelleted food and tap water. Animal treatment and experimental procedures are approved by local ethical committees (Regierungspräsidium Darmstadt; Germany).
(§4) Dopamine-denervating lesions are performed on rats anaesthetized with a 5:1 mixture of ketamine and xylazine (1 ml/kg, i.p.). […] The animals' turning behaviour is recorded in an automated rotometer (TSE Rotameter System, TSE-Systems GmbH, Bad Homburg, Germany) over a 90 min period after the intraperitoneal (i.p.) injection of 2.5 mg/kg dexamphetamine sulphate dissolved in saline. […]
In order to evaluate the severity of LID, AIMs are recorded every second day as described by Cenci et al. (1998). […] Each rat is scored on a severity scale from 0 to 4 based on its frequency and persistence (1=occasional; 2=frequent; 3=continuous but interrupted by sensory distraction; 4=continuous, severe and not interrupted by sensory distraction). […]

[3] = system: 6-OHDA-lesioned rat model of Parkinson's disease; assay: Turning behaviour induced by high dose of L-DOPA in 6-OHDA-lesioned rats; type: in vivo; conditions: eltoprazine 0.3, 1.25 and 5 mg/kg 30 min before test; 180 min rotometer; FIG. 3
Method: as §3, §4
In order to evaluate the effect of eltoprazine on parkinsonian symptoms and its interaction with L-DOPA, rotational behaviour is evaluated. The numbers of ipsilateral and contralateral turns are recorded in an automated rotometer (TSE Rotameter System, TSE-Systems GmbH, Bad Homburg, Germany) over a period of 180 min. […]

[4] = molecular target: T1, human serotonin 5-HT1a receptor (Homo sapiens, UniProt P08908); assay: GTPγS assay, recombinant CHO-K1 membranes, agonist testing; type: biochemical; conditions: human recombinant cell line; FIG. 1
T1 construct: expressed in transfected cells; host or cells: CHO-K1
T1 sequence (P08908 1-422): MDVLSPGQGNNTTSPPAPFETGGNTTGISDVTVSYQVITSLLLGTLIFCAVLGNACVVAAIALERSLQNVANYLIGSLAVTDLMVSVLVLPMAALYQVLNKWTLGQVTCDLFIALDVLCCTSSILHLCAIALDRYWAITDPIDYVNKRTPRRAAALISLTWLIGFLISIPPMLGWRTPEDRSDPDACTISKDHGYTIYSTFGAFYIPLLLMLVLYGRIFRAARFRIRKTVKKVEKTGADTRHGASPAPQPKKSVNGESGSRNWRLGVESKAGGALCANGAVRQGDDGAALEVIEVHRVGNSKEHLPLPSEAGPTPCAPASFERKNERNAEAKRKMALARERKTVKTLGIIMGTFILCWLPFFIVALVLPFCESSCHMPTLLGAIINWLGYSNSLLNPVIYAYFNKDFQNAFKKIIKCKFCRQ
Method: (§5) Eltoprazine was tested for activity on the human serotonin 5-HT1a and 5-HT1b receptors using a GTPγS assay. Recombinant membranes obtained from CHO-K1 cells expressing either the 5-HT1a or 5-HT1b receptors were mixed with GDP (volume:volume) and incubated for at least 15 min on ice. In parallel, GTPγ[35S] was mixed with the beads (volume:volume) just before starting the reaction. The following reagents were successively added in the wells of an Optiplate (Perkin Elmer): 50 μl of test compound, 20 μl of the membranes:GDP mix, 10 μl of assay buffer (for agonist testing) and 20 μl of the GTPγ[35S]:beads mix. The plates were covered with a top seal, shaken on an orbital shaker for 2 min, and then incubated for 1 h at room temperature. Then the plates were centrifuged for 10 min at 2000 rpm, incubated at room temperature 1 h and counted for 1 min/well with a PerkinElmer TopCount reader.

[5] = molecular target: T2, human serotonin 5-HT1b receptor (Homo sapiens, UniProt P28222); assay: as above; type: biochemical; conditions: human recombinant cell line; FIG. 1
T2 construct: expressed in transfected cells; host or cells: CHO-K1
Method: as §5

Sprague-Dawley rats = assay: Effect of eltoprazine on weight gain and food intake of rats; type: in vivo, rat; conditions: vs vehicle
Method: Experimentally naive adult male Sprague-Dawley rats (250-300 g; Janvier, France) were housed in groups of four per cage. Colony room temperature and humidity were maintained respectively at 20±1° C. and 60±3%. Food and water were available ad libitum and the animals were kept under an alternating 12 h/12 h day-night cycle (lights on at 07.00) for at least 6 days before the experiments were started. All experiments were conducted during the light period of the day-night cycle.
as §1, §2
Groups 3 and 4 were NOT injected at the weekend, and the weight and food intake were not recorded at the weekend.
Weight of animals and food intake were measured daily for two weeks (with exception of weekends).

[6] = system: 5-HT2c (initially designated 5-HT1c); conditions: Schipper et al. 1990; cited from earlier work
[7] = molecular target: T3, 5-HT2a recombinant receptor (Homo sapiens, UniProt P28223); assay: Aequorin cell line functional assay, agonist testing; type: cell-based; conditions: FIG. 1
T3 construct: expressed in transfected cells
Method: (§6) Aequorin cell lines expressing the 5-HT2a, 5-HT2b and 5-HT2c non-edited (ne) recombinant receptors were used to evaluate the functional activity of eltoprazine. Aequorin cells grown 18 h prior to the test in media without antibiotics were detached by gentle flushing with PBS-EDTA (5 mM EDTA), recovered by centrifugation and resuspended in “assay buffer” (DMEM/HAM's F12 with HEPES+0.1% BSA protease free). Cells were incubated at room temperature for at least 4 h with Coelenterazine h (Molecular Probes). The reference agonist used were 5-HT and α-methyl-5-HT. For agonist testing, 50 μl of cell suspension were injected on 50 μl of test compound or reference agonist plated in a 96-well plate. The resulting emission of light was recorded using the Hamamatsu Functional Drug Screening System 6000 (FDSS 6000).

[8] = molecular target: T4, 5-HT2c non-edited (ne) recombinant receptor (Homo sapiens, UniProt P28335); assay: as above; type: cell-based; conditions: FIG. 1
T4 construct: expressed in transfected cells
T4 sequence (P28335 33-458): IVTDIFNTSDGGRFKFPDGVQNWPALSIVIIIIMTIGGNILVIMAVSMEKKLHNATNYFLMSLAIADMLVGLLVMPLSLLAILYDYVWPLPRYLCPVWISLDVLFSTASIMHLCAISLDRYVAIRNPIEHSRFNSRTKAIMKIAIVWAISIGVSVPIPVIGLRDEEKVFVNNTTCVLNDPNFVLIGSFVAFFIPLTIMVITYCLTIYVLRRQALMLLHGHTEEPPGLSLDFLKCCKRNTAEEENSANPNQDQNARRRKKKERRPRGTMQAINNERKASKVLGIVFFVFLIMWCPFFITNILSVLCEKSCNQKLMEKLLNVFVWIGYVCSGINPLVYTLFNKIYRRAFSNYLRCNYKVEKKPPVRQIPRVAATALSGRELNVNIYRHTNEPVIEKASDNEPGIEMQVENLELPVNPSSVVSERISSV
Method: as §6

5-HT1b receptor = conditions: Schipper et al. 1990; cited from earlier work
patients = conditions: clinical trials in aggressive behaviour (de Koning et al. 1994); cited from earlier work

T3 sequence (P28223 whole entry): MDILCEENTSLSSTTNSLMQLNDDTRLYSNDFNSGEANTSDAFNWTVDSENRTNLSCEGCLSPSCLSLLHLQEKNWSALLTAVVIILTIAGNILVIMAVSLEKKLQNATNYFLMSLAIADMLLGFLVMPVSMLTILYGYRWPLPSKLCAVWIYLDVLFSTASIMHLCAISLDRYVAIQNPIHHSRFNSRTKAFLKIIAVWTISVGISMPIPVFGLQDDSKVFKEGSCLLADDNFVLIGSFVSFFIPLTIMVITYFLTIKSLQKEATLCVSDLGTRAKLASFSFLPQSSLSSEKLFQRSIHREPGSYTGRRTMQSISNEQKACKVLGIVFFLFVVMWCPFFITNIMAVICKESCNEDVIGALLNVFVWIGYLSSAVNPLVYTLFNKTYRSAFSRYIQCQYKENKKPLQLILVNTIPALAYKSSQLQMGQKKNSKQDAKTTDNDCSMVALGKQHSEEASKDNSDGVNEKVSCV
T2 sequence (P28222 whole entry): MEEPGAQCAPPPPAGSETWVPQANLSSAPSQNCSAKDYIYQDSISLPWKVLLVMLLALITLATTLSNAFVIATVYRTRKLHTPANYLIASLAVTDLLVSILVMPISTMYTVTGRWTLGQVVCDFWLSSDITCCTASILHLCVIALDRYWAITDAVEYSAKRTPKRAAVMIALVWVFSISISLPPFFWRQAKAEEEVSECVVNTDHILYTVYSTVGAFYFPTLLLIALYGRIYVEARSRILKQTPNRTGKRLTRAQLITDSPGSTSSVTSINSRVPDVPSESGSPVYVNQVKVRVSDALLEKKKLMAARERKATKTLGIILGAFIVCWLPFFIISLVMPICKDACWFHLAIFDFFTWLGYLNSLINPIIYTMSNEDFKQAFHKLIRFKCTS

## c1cc2c(c(N3CCNCC3)c1)OCCO2 [eltoprazine, 1-(2,3-dihydro-1,4-benzodioxin-8-yl)piperazine]
[1]; 1 mg/kg s.c. b.i.d. injections
  plasma levels: approx. 55 ng/ml
  plasma levels (range): 48 to 65 ng/mL
[1]; osmotic minipump 8 mg/kg/day
  plasma levels: approx. 110 ng/ml
  plasma levels (range): 86 to 143 ng/mL
5-HT1a receptor
  pharmacological action on 5-HT1a receptor: agonistic effect
[2]
  effect on AIM scores: significantly reverses, in a dose-dependent manner
[3]
  effect on turning behaviour induced by L-DOPA (antiparkinsonian effect of L-DOPA): does not interfere with the antiparkinsonian effect of L-DOPA
[4]
  functional activity at 5-HT1a receptor: partial agonistic action
[5]
  functional activity at 5-HT1b receptor: partial agonistic action
Sprague-Dawley rats; 1 mg/kg s.c. b.i.d. injections, 2 weeks (not at weekends), FIG. 5A
  weight gain: delay in weight gain; also recorded: significant effect of treatment
Sprague-Dawley rats; 1 mg/kg s.c. b.i.d. injections, 2 weeks (not at weekends), FIG. 5B
  food intake: reduced food intake; also recorded: significant effect of treatment
Sprague-Dawley rats; osmotic minipump 8 mg/kg/day, 2 weeks, FIG. 4A
  weight gain: delay in weight gain; also recorded: significant effect of treatment
Sprague-Dawley rats; osmotic minipump 8 mg/kg/day, 2 weeks, FIG. 4B
  food intake: reduced food intake; also recorded: significant effect of treatment
[6]
  effect on 5-HT2c: antagonistic
[7]
  functional activity at 5-HT2a receptor: full agonist
[8]
  functional activity at 5-HT2c receptor: full agonist
5-HT1b receptor
  pharmacological action on 5-HT1b receptor: agonistic effect
patients
  clinical safety: clinically safe
